Data as given in PubChem BioAssay (NCI).
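Compound exposure: 48 hours, 5 concentrations, 96-well plates. At the TGI there is no net growth.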

What was measured:
Assay in all cases: NCI anticancer screen, dose series, 48 h
[1] = system: UO-31 renal
[2] = system: SK-MEL-5 melanoma
[3] = system: SK-MEL-28 melanoma
[4] = system: HCT-15 colon
[5] = system: SF-539 CNS
[6] = system: MDA-MB-435
[7] = system: ACHN renal
[8] = system: SK-OV-3 ovarian
[9] = system: K-562 leukemia
[10] = system: MDA-N
[11] = system: NCI/ADR-RES ovarian
[12] = system: UACC-257 melanoma
[13] = system: OVCAR-4 ovarian
[14] = system: OVCAR-3 ovarian
[15] = system: HL-60(TB) leukemia
[16] = system: M14 melanoma
[17] = system: DU-145 prostate
[18] = system: IGROV1 ovarian
[19] = system: 786-0 renal
[20] = system: CCRF-CEM leukemia
[21] = system: COLO 205 colon
[22] = system: SF-268 CNS
[23] = system: NCI-H23 lung
[24] = system: PC-3 prostate
[25] = system: SK-MEL-2 melanoma
[26] = system: MALME-3M melanoma
[27] = system: HCC-2998 colon
[28] = system: HT29 colon
[29] = system: T-47D breast
[30] = system: MCF7 breast
[31] = system: HS 578T breast
[32] = system: RXF 393 renal
[33] = system: U251 CNS
[34] = system: HOP-62 NSCLC
[35] = system: SR leukemia
[36] = system: UACC-62 melanoma
[37] = system: SN12C renal
[38] = system: MOLT-4 leukemia
[39] = system: SW-620 colon
[40] = system: SNB-19 CNS
[41] = system: LOX IMVI melanoma
[42] = system: SNB-75 CNS
[43] = system: HOP-92 NSCLC
[44] = system: NCI-H460 lung
[45] = system: KM12 colon
[46] = system: MDA-MB-231 breast
[47] = system: HCT-116 colon
[48] = system: SF-295 CNS
[49] = system: RPMI-8226 leukemia
[50] = system: A549 NSCLC
[51] = system: BT-549 breast
[52] = system: CAKI-1 renal
[53] = system: OVCAR-5 ovarian
[54] = system: TK-10 renal
[55] = system: NCI-H226 lung
[56] = system: OVCAR-8 ovarian
[57] = system: EKVX NSCLC
[58] = system: NCI-H522 lung

Measured: TGI

COc1ccc(-c2c3c(n(C4OC(CO)C(O)C(O)C4O)c(=S)c2C#N)CCC3)cc1 (stereo not given)
63.6 µM: [32]
38.8 µM: [2]
85.4 µM: [38]
69.6 µM: [14]
not listed: [55] | [56] | [57] | [58]
> 100 µM: all other assays above

Cc1cc2ncn(C3CCCCO3)c2cc1C (stereo not given)
75.1 µM: [1]
not listed: [35] | [44]
> 100 µM: all other assays above
